From patent US10092541B2, “Methods for the treatment of diseases ameliorated by PDE4 inhibition using dosage titration of apremilast” (CELGENE CORPORATION, priority 2014, dated 2018)
Marks after values point to notes of the source that are not given here.

Legend:
[1] = system: patients with moderate to severe plaque psoriasis; assay: Esteem 1: randomized, double-blind, placebo controlled, multicenter clinical study in psoriasis; format: in vivo, human; details: for PASI-75, %: primary endpoint
Protocol: (§1) In the study 844 patients were enrolled; patients ranged in age from 18 to 83 years, with an overall median age of 46 years. The mean baseline body surface area (BSA) involvement was 25.19% (median 21.0%), the mean baseline PASI score was 19.07 (median 16.80), and the proportion of patients with sPGA score of 3 (moderate) and 4 (severe) at Baseline were 70.0% and 29.8%, respectively. Patients were randomized to Apremilast, in an amount of 30 mg twice per day (after the initial dose titration schedule) or placebo for the first 16 weeks, and from Weeks 16 to 32, all patients received Apremilast in an amount of 30 mg twice per day.
(§2) Target Dose: 30 mg (po) BID
(§3) Day 1: 10 mg in the morning
(§4) Day 2: 10 mg morning; 10 mg after noon
(§5) Day 3: 10 mg morning; 20 mg after noon
(§6) Day 4: 20 mg morning; 20 mg after noon
(§7) Day 5: 20 mg morning; 30 mg after noon
(§8) During the Randomized Treatment Withdrawal Phase (Weeks 32-52), patients originally randomized to Apremilast who achieved at least a 75% reduction in PASI score (PASI-75) at Week 32 were re-randomized to either placebo or Apremilast 30 mg BID. Patients who were re-randomized to placebo and who lost PASI-75 response at Week 32 compared to Baseline, were retreated with Apremilast 30 mg BID.

[2] = system: patients with moderate to severe plaque psoriasis; assay: Esteem 2: randomized, double-blind, placebo controlled, multicenter clinical study in psoriasis; format: in vivo, human; details: for PASI-75, % (LOCF): primary endpoint; for sPGA score 0 (clear) or 1 (almost clear), % (LOCF): with ≥2-point reduction from baseline; for PPPGA score 0 (clear) or 1 (almost clear), %: patients with palmoplantar psoriasis (PPPGA ≥3), n = 26; for ScPGA score 0 (clear) or 1 (minimal), %: patients with scalp psoriasis (ScPGA ≥3), n = 176
Protocol: as §1, with “413” for “844”, “Apremilast” for “Apremilast,”
as §2, §3, §4, §5, §6, §7
as §8, with “50%” for “75%”, “(PASI-50)” for “(PASI-75) at Week 32”, “50% of the improvement in PASI” for “PASI-75 response”

[3] = 77 PASI 75 responders re-randomized to apremilast 30 mg BID at Week 32
[4] = Week 16, 30 mg twice daily, n = 562, LOCF
[5] = Week 16, 30 mg twice daily, n = 562, LOCF, listed as Apremilast
[6] = Week 16, 30 mg twice daily, patients with baseline DLQI >5, n = 459
[7] = Week 16, 30 mg twice daily, patients with nail psoriasis at baseline, n = 363
[8] = did not lead to discontinuation
[9] = 61 patients with ≥PASI-50 at Week 32 re-randomized to apremilast
[10] = Week 16, 30 mg BID, n = 274, LOCF
[11] = Week 16, 30 mg BID, n = 274, LOCF, listed as Apremilast
[12] = Week 16, 30 mg BID, n = 274, listed as Apremilast
[13] = Week 16, 30 mg BID, patients with baseline DLQI >5, n = 226
[14] = Week 16, 30 mg BID, patients with nail psoriasis (score ≥1), n = 175
[15] = Week 16, 30 mg BID, listed as Apremilast
[16] = initially randomized to apremilast, did not achieve PASI-50 at Week 32
[17] = patients treated with apremilast from baseline
[18] = placebo at baseline, switched to apremilast at Week 16, achieved PASI-50 at Week 32
[19] = placebo at baseline, switched to apremilast at Week 16, did not achieve PASI-50 at Week 32

## CCOc1cc([C@@H](CS(C)(=O)=O)N2C(=O)c3cccc(NC(C)=O)c3C2=O)ccc1OC [apremilast, (+)-2-[1-(3-ethoxy-4-methoxyphenyl)-2-methylsulfonylethyl]-4-acetylaminoisoindoline-1,3-dione]
[1]; 30 mg twice daily
  Non-overlapping confidence intervals vs placebo in mean percentage improvement in PASI from baseline, first detected: as early as Week 2
  Responses to apremilast from Weeks 16 to 32: generally maintained
[1]; 64 patients re-randomized to placebo who re-initiated apremilast before Week 52 after losing PASI 75
  regained PASI 75 response after re-treatment, %: 70.3%
[1]; [3]
  PASI-75 response at Week 52, %: 61.0%
  at least 70% improvement in PASI score from baseline at Week 52, %: 75.3%
[1]; [4]
  Mean change in DLQI score: −6.6
  PASI-50, %: (58.7%)*
  PASI-90, %: (9.8%)*
  Percentage change in PASI score, mean (SD): −52.1%
  Percentage change in PASI score, median (range): −59.0%
  sPGA response (score 0 or 1 with at least two-point reduction), %: 21.7%
  PASI-75, %: 33.1%
[1]; [5]
  sPGA response (score 0 or 1 with at least two-point reduction), %: (21.7%)*
  PASI-75, %: (33.1%)*
[1]; [6]
  DLQI + PASI-50 response, %: (48.1%)*
  DLQI response (decrease of at least five points), %: (70.2%)*
[1]; [7]
  NAPSI-50, %: (33.3%)*
  Percentage change in NAPSI score, mean (SD): −22.5%
[1]; Week 16, 30 mg twice daily, patients with scalp psoriasis (ScPGA at least 3) at baseline, n = 374
  ScPGA score 0-1, %: (46.5%)*
[1]; [8]
  Severity of the majority of adverse events: mild to moderate
[1]; human, in vivo
  5 most common adverse events (AEs): diarrhea, nausea, upper respiratory tract infection, tension headache, and headache
  Discontinuation due to upper respiratory tract infection: No patient discontinued
  Discontinuations due to AEs: diarrhea: 0.8%
  Discontinuations due to AEs: headache: 0.4%
  Discontinuations due to AEs: nausea: 1.2%
  Discontinuations due to AEs: tension headache: 0.2%
[1]; patients re-randomized to apremilast 30 mg BID at Week 32
  Mean percentage change from baseline in PASI score at Week 52: 80.5%
[1]; patients re-randomized to apremilast at Week 32
  Median time to first loss of PASI 75 after re-randomization: 17.7 weeks
[1]; study conclusion
  signs and symptoms of psoriasis: significantly improved
[2]; 30 mg BID
  Non-overlapping confidence intervals vs placebo in improvement in pruritus and skin discomfort/pain from baseline, first detected: as early as Week 2
[2]; 30 mg BID, first post-baseline visit
  Non-overlapping confidence intervals vs placebo in mean percentage improvement in PASI from baseline, first detected: as early as Week 2
[2]; 32 patients re-randomized to placebo who lost 50% of PASI improvement and re-initiated apremilast before Week 52
  regained PASI-50 response after re-treatment: 65.6%
[2]; 36 patients re-randomized to apremilast who were also PASI-75 responders at Week 32
  PASI-75 at Week 52: 66.7%
[2]; [9]
  PASI-50 response at Week 52: 80.3%
  mean percent change in PASI at Week 52: −74.4%
  ≥70% improvement from baseline in PASI score at Week 52: 60.7%
[2]; Week 16, 30 mg BID
  decrease in pruritus severity from baseline: ~50%
  decrease in skin discomfort/pain severity from baseline: ~50%
  PPPGA score 0 (clear) or 1 (almost clear), %: 65.4%
  ScPGA score 0 (clear) or 1 (minimal), %: 40.9%
[2]; Week 16, 30 mg BID, n = 274
  PASI-50, % (LOCF): 55.5%
  PASI-50, % (NRI): 53.6* %
  PASI-75, % (NRI): 28.1* %
  PASI-90, % (LOCF): 8.8%
  sPGA score 0 (clear) or 1 (almost clear), % (NRI): 19.7* %
  PASI-75, % (LOCF): 28.8%
  sPGA score 0 (clear) or 1 (almost clear), % (LOCF): 20.4%
[2]; [10]
  Mean % change in PASI score: −50.9%
  Mean change in DLQI score: −6.7*
  Mean change in pruritus VAS score, mm: −33.5 mm
  Mean change in skin discomfort/pain VAS score, mm: −28.5 mm
  Median % change in PASI score: −56.0%
[2]; [11]
  Mean % change in PASI score: −50.9* %
  Mean change in pruritus VAS score, mm: −33.5* mm
  Mean change in skin discomfort/pain VAS score, mm: −28.5* mm
[2]; [12]
  PASI-50, % (LOCF): 55.5* %
  PASI-90, % (LOCF): 8.8^‡ %
  PASI-75, % (LOCF): 28.8* %
  sPGA score 0 (clear) or 1 (almost clear), % (LOCF): 20.4* %
[2]; [13]
  DLQI (decrease of ≥5 points) + PASI-50 response, %: 49.1* %
  DLQI response (decrease of ≥5 points), %: 70.8* %
[2]; [14]
  Mean % change in NAPSI score: −29.0** %
  NAPSI-50, %: 44.6%
[2]; Week 16, 30 mg BID, patients with nail psoriasis (score ≥1), n = 175, listed as Apremilast
  NAPSI-50, %: 44.6* %
[2]; [15]
  PPPGA score 0 (clear) or 1 (almost clear), %: 65.4^|| %
  ScPGA score 0 (clear) or 1 (minimal), %: 40.9* %
[2]; Weeks 16 to 32
  Response rates in placebo patients who switched to apremilast at Week 16 vs apremilast in both treatment periods: response rates similar
[2]; [8]
  Severity of the majority of adverse events: mild to moderate
[2]; human, in vivo
  5 most common adverse events (AEs): diarrhea, nausea, upper respiratory tract infection, tension headache, and headache
  Discontinuation due to upper respiratory tract infection: No patient discontinued
  Discontinuations due to AEs: diarrhea: 0.8%
  Discontinuations due to AEs: headache: 0.4%
  Discontinuations due to AEs: nausea: 1.2%
  Discontinuations due to AEs: tension headache: 0.2%
[2]; [16]
  PASI-50 at Week 52: 32.8%
  mean percent change from baseline in PASI score at Week 52: −45.7%
[2]; patients re-randomized to apremilast
  median time to first loss of 50% of the PASI improvement obtained at Week 32: 21.9 weeks
[2]; [17]
  PASI, sPGA, and DLQI responses from Weeks 16 to 32: generally maintained
  PASI-50, PASI-75, and PASI-90 responses from Weeks 16 to 32: generally maintained
[2]; [18]
  PASI-50 at Week 52: 83.1%
  mean percent change in PASI from baseline at Week 52: −71.8%
[2]; [19]
  PASI-50 at Week 52: 16.0%
  mean percent change from baseline in PASI at Week 52: −24.7%
[2]; study conclusion
  signs and symptoms of psoriasis: significantly improved
